According to patent US20090018134A1, “Compounds - 945” (AstraZeneca AB, priority 2007, published 2009):

Each compound was assayed against T1, mTOR (Homo sapiens, UniProt P42345) (assay: In Vitro mTOR Kinase Assay (Echo), Test (a)(ii)). Details: table of enzyme assay Test (a)(ii); read-out: Test (a)(ii) IC50.
T1 construct: FLAG; made in house
Assay type: biochemical
Outline: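 Inhibition expressed as IC50 from an AlphaScreen read-out: phospho-T389 p70 S6K antibody plus streptavidin donor/protein A acceptor beads, left overnight in the dark. The kinase reaction ran 2 h at room temperature, then was stopped with EDTA. Enzyme: FLAG-purified mTOR 1362-2549 fragment from stable HEK293 cells.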

T1 sequence (P42345 1362-2549): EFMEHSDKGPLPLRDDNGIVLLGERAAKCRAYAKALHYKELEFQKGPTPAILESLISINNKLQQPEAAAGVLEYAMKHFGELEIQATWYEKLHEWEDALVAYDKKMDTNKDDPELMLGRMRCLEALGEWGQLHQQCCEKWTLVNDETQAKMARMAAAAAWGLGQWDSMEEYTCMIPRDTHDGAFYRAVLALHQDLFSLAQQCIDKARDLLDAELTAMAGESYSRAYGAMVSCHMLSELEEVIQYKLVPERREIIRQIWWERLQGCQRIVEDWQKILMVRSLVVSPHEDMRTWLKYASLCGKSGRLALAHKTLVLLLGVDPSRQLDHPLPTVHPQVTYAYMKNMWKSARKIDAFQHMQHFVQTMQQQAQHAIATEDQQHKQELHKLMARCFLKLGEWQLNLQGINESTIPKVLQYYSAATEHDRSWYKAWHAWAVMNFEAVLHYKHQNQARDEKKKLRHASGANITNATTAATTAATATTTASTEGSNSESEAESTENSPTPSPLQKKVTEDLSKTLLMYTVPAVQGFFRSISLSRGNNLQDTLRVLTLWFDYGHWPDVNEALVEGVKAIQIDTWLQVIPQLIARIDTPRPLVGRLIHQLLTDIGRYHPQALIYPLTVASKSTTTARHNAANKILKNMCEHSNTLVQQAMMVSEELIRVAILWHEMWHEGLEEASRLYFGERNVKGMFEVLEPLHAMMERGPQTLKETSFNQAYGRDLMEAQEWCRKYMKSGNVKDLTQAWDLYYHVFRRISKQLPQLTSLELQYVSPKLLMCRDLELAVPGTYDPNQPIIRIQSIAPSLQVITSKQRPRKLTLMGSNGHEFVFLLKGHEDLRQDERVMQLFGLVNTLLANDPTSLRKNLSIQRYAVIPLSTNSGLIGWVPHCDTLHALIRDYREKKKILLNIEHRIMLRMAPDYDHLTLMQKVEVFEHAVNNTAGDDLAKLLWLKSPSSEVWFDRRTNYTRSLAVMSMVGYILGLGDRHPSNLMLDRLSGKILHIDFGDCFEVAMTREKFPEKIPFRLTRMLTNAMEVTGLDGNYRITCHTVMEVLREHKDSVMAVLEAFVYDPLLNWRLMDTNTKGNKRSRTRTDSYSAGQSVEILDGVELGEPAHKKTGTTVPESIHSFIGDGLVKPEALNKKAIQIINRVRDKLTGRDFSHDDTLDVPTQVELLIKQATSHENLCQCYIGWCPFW

SMILES	IC50
C[C@H]1COCCN1c1cc(C2(S(=O)(=O)CCCO)CCOCC2)nc(-c2ccc(NC(=O)Nc3nccs3)cc2)n1 [Example 36ci, 1-[4-[4-[4-(3-hydroxypropylsulfonyl)oxan-4-yl]-6-[(3S)-3-methylmorpholin-4-yl]pyrimidin-2-yl]phenyl]-3-(1,3-thiazol-2-yl)urea]	38.6 nM
C[C@H]1COCCN1c1cc(C2(S(=O)(=O)CCCO)CC2)nc(-c2ccc(NC(=O)N(C)C3CC3)cc2)n1 [Example 36ck, 1-cyclopropyl-3-[4-[4-[1-(3-hydroxypropylsulfonyl)cyclopropyl]-6-[(3S)-3-methylmorpholin-4-yl]pyrimidin-2-yl]phenyl]-1-methylurea]	2620 nM
C[C@H]1COCCN1c1cc(C2(S(=O)(=O)CCCO)CC2)nc(-c2ccc(NC(=O)NC3(C)CC3)cc2)n1 [Example 36cl, 1-[4-[4-[1-(3-hydroxypropylsulfonyl)cyclopropyl]-6-[(3S)-3-methylmorpholin-4-yl]pyrimidin-2-yl]phenyl]-3-(1-methylcyclopropyl)urea]	68.1 nM
C[C@H]1COCCN1c1cc(C2(S(=O)(=O)CCCO)CC2)nc(-c2ccc(NC(=O)NC(C)(C)C)cc2)n1 [Example 36cn, 3-tert-butyl-1-[4-[4-[1-(3-hydroxypropylsulfonyl)cyclopropyl]-6-[(3S)-3-methylmorpholin-4-yl]pyrimidin-2-yl]phenyl]urea]	85.8 nM
C[C@H]1COCCN1c1cc(C2(S(=O)(=O)CCCO)CC2)nc(-c2ccc(NC(=O)NC#N)cc2)n1 [Example 36co, 3-cyano-1-[4-[4-[1-(3-hydroxypropylsulfonyl)cyclopropyl]-6-[(3S)-3-methylmorpholin-4-yl]pyrimidin-2-yl]phenyl]urea]	1620 nM
C[C@H]1COCCN1c1cc(C2(S(=O)(=O)CCCO)CC2)nc(-c2ccc(NC(=O)N3CCC(O)C3)cc2)n1 (stereo partly drawn) [Example 36cp, 3-hydroxy-N-[4-[4-[1-(3-hydroxypropylsulfonyl)cyclopropyl]-6-[(3S)-3-methylmorpholin-4-yl]pyrimidin-2-yl]phenyl]pyrrolidine-1-carboxamide]	1260 nM
C[C@H]1COCCN1c1cc(C2(S(=O)(=O)CCCO)CC2)nc(-c2ccc(NC(=O)NCCS(C)(=O)=O)cc2)n1 [Example 36cq, 1-[4-[4-[1-(3-hydroxypropylsulfonyl)cyclopropyl]-6-[(3S)-3-methylmorpholin-4-yl]pyrimidin-2-yl]phenyl]-3-(2-methylsulfonylethyl)urea]	114 nM
C[C@H]1COCCN1c1cc(C2(S(=O)(=O)CCCO)CC2)nc(-c2ccc(NC(=O)NC3CCS(=O)(=O)C3)cc2)n1 (stereo partly drawn) [Example 36cr, 3-(1,1-dioxothiolan-3-yl)-1-[4-[4-[1-(3-hydroxypropylsulfonyl)cyclopropyl]-6-[(3S)-3-methylmorpholin-4-yl]pyrimidin-2-yl]phenyl]urea]	43.5 nM
C[C@H]1COCCN1c1cc(C2(S(=O)(=O)CCCO)CC2)nc(-c2ccc(NC(=O)NCC(=O)N(C)C)cc2)n1 [Example 36cs, 2-[[4-[4-[1-(3-hydroxypropylsulfonyl)cyclopropyl]-6-[(3S)-3-methylmorpholin-4-yl]pyrimidin-2-yl]phenyl]carbamoylamino]-N,N-dimethylactamide]	1170 nM
C[C@H]1COCCN1c1cc(C2(S(=O)(=O)c3ccccn3)CC2)nc(-c2ccc(NC(=O)NCc3ncc[nH]3)cc2)n1 [Example 36cu, 3-(1H-imidazol-2-ylmethyl)-1-[4-[4-[(3S)-3-methymorpholin-4-yl]-6-(1-pyridin-2-ylsulfonylcyclopropyl)pyrimidin-2-yl]phenyl]urea]	68.6 nM
C[C@H]1COCCN1c1cc(C2(S(=O)(=O)c3ccncc3)CC2)nc(-c2ccc(NC(=O)NCc3ncc[nH]3)cc2)n1 [Example 36cw, 3-(1H-imidazol-2-ylmethyl)-1-[4-[4-[(3S)-3-methylmorpholin-4-yl]-6-(1-pyridin-4-ylsulfonylcyclopropyl)pyrimidin-2-yl]phenyl]urea]	49.3 nM
C[C@H]1COCCN1c1cc(C2(S(=O)(=O)c3ccncc3)CC2)nc(-c2ccc(NC(=O)NC3(CO)CC3)cc2)n1 [Example 36cx, 3-[1-(hydroxymethyl)cyclopropyl]-1-[4-[4-[(3S)-3-methylmorpholin-4-yl]-6-(1-pyridin-4-ylsulfonylcyclopropyl)pyrimidin-2-yl]phenyl]urea]	284 nM
CNC(=O)Nc1ccc(-c2nc(N3CCOC[C@@H]3C)cc(C3(S(=O)(=O)c4ccccc4)CCOCC3)n2)cc1 [Example 36cy, 1-[4-[4-[4-(benzenesulfonyl)oxan-4-yl]-6-[(3S)-3-methylmorpholin-4-yl]pyrimidin-2-yl]phenyl]-3-methylurea]	47.8 nM
CCNC(=O)Nc1ccc(-c2nc(N3CCOC[C@@H]3C)cc(C3(S(=O)(=O)c4ccccc4)CCOCC3)n2)cc1 [Example 36cz, 3-[4-[4-[4-(benzenesulfonyl)oxan-4-yl]-6-[(3S)-3-methylmorpholin-4-yl]pyrimidin-2-yl]phenyl]-1-ethylurea]	38.4 nM
C[C@H]1COCCN1c1cc(C2(S(=O)(=O)c3ccccc3)CCOCC2)nc(-c2ccc(NC(=O)NC3CC3)cc2)n1 [Example 36da, 1-[4-[4-[4-(benzenesulfonyl)oxan-4-yl]-6-[(3S)-3-methylmorpholin-4-yl]pyrimidin-2-yl]phenyl]-3-cyclopropylurea]	33.1 nM
C[C@H]1COCCN1c1cc(C2(S(=O)(=O)c3ccccc3)CCOCC2)nc(-c2ccc(NC(=O)NCCO)cc2)n1 [Example 36db, 1-[4-[4-[4-(benzenesulfonyl)oxan-4-yl]-6-[(3S)-3-methylmorpholin-4-yl]pyrimidin-2-yl]phenyl]-3-(2-hydroxyethyl)urea]	20.9 nM

These reach a lower IC50. Values come first.

IC50	SMILES
3.33 nM	C[C@H]1COCCN1c1cc(C2(S(=O)(=O)CCCO)CC2)nc(-c2ccc(NC(=O)Nc3nccs3)cc2)n1 [Example 36cj, 1-[4-[4-[1-(3-hydroxypropylsulfonyl)cyclopropyl]-6-[(3S)-3-methylmorpholin-4-yl]pyrimidin-2-yl]phenyl]-3-(1,3-thiazol-2-yl)urea]
9.46 nM	C[C@H]1COCCN1c1cc(C2(S(=O)(=O)CCCO)CC2)nc(-c2ccc(NC(=O)NCC(F)F)cc2)n1 [Example 36cm, 3-(2,2-difluoroethyl)-1-[4-[4-[1-(3-hydroxypropylsulfonyl)cyclopropyl]-6-[(3S)-3-methylmorpholin-4-yl]pyrimidin-2-yl]phenyl]urea]
1.57 nM	C[C@H]1COCCN1c1cc(C2(S(=O)(=O)c3ccccn3)CC2)nc(-c2ccc(NC(=O)Nc3ncns3)cc2)n1 [Example 36ct, 1-[4-[4-[(3S)-3-methylmorpholin-4-yl]-6-(1-pyridin-2-ylsulfonylcyclopropyl)pyrimidin-2-yl]phenyl]-3-(1,2,4-thiadiazol-5-yl)urea]
3.17 nM	CNC(=O)Nc1ccc(-c2nc(N3CCOC[C@@H]3C)cc(C3(S(=O)(=O)C4CC4)CCC3)n2)cc1 [Example 36d, 1-[4-[4-(1-cyclopropylsulfonylcyclobutyl)-6-[(3S)-3-methylmorpholin-4-yl]pyrimidin-2-yl]phenyl]-3-methylurea]
9.89 nM	O=C(Nc1ccc(-c2nc(N3CCOCC3)cc(C3(S(=O)(=O)c4ccccc4)CC3)n2)cc1)NC1CC1 [Example 36dc, 1-[4-[4-[1-(benzenesulfonyl)cyclopropyl]-6-morpholin-4-ylpyrimidin-2-yl]phenyl]-3-cyclopropylurea]
2.91 nM	CCNC(=O)Nc1ccc(-c2nc(N3CCOCC3)cc(C3(S(=O)(=O)c4ccccc4)CC3)n2)cc1 [Example 36dd, 3-[4-[4-[1-(benzenesulfonyl)cyclopropyl]-6-morpholin-4-ylpyrimidin-2-yl]phenyl]-1-ethylurea]
3.89 nM	O=C(NCCO)Nc1ccc(-c2nc(N3CCOCC3)cc(C3(S(=O)(=O)c4ccccc4)CC3)n2)cc1 [Example 36de, 1-[4-[4-[1-(benzenesulfonyl)cyclopropyl]-6-morpholin-4-ylpyrimidin-2-yl]phenyl]-3-(2-hydroxyethyl)urea]
7.12 nM	CNC(=O)Nc1ccc(-c2nc(N3CCOCC3)cc(C3(S(=O)(=O)c4ccccc4)CC3)n2)cc1 [Example 36df, 3-[4-[4-[1-(benzenesulfonyl)cyclopropyl]-6-morpholin-4-ylpyrimidin-2-yl]phenyl]-1-methylurea]
16.4 nM	O=C(NCCCO)Nc1ccc(-c2nc(N3CCOCC3)cc(C3(S(=O)(=O)c4ccccc4)CC3)n2)cc1 [Example 36dg, 1-[4-[4-[1-(benzenesulfonyl)cyclopropyl]-6-morpholin-4-ylpyrimidin-2-yl]phenyl]-3-(3-hydroxypropyl)urea]
3.4 nM	N#CCCNC(=O)Nc1ccc(-c2nc(N3CCOCC3)cc(C3(S(=O)(=O)c4ccccc4)CC3)n2)cc1 [Example 36dh, 1-[4-[4-[1-(benzenesulfonyl)cyclopropyl]-6-morpholin-4-ylpyrimidin-2-yl]phenyl]-3-(2-cyanoethyl)urea]
9.23 nM	O=C(Nc1ccc(-c2nc(N3CCOCC3)cc(C3(S(=O)(=O)c4ccccc4)CC3)n2)cc1)Nc1ncns1 [Example 36di, 1-[4-[4-[1-(benzenesulfonyl)cyclopropyl]-6-morpholin-4-ylpyrimidin-2-yl]phenyl]-3-(1,2,4-thiadiazol-5-yl)urea]
8.91 nM	Cn1cc(NC(=O)Nc2ccc(-c3nc(N4CCOCC4)cc(C4(S(=O)(=O)c5ccccc5)CC4)n3)cc2)cn1 [Example 36dj, 3-[4-[4-[1-(benzenesulfonyl)cyclopropyl]-6-morpholin-4-ylpyrimidin-2-yl]phenyl]-1-(1-methylpyrazol-4-yl)urea]
9.05 nM	Cc1csc(S(=O)(=O)C2(c3cc(N4CCOC[C@@H]4C)nc(-c4ccc(NC(=O)NC5CC5)cc4)n3)CCCC2)n1 [Example 36dk, 3-cyclopropyl-1-[4-[4-[(3S)-3-methylmorpholin-4-yl]-6-[1-[(4-methyl-1,3-thiazol-2-yl)sulfonyl)cyclopentyl]pyrimidin-2-yl]phenyl]urea]
